The source of these data is patent US4728650A, “3,4-dihydrobenzopyran derivatives and medicinal uses thereof” (Kuraray Co., Ltd., priority 1985, dated 1988).

The nature of assay [1]: Hydrochloric acid-ethanol-induced ulcer in rats. In kind it is in vivo, Wistar rats (male). The method, then: Male Wistar rats (body weights, 170-210 g) were used in groups of 6 to 8 animals. Indomethacin, 20 mg/kg body weight, was injected subcutaneously to rats which had been deprived of food for 24 hours. After 7 hours, the stomach was excised under ether anesthesia. A 10% aqueous solution of formaldehyde was infused into the stomach until the stomach was inflated and, then, the stomach was immersed in a 10% aqueous solution of formaldehyde for 10 minutes for fixation of the tissue. After fixation, an incision was made along the greater curvature and the length of ulcers occurring in the glandular portion of the stomach was measured. The total length of ulcers occurring in a rat was taken as an ulcer index. Each test compound was orally administered, as suspended in a gum arabic solution in concentration of 5%, to rats 10 minutes before subcutaneous injection of indomethacin. Male Wistar rats (body weights, 160-190 g) were used in groups of 6 to 8 animals. One milliliter of a 60% aqueous solution of ethanol containing 150 mM hydrochloric acid was administered orally to rats which had been deprived of food for 24 hours. After one hour, the stomach was excised under ether anesthesia. In a manner similar to that described in study for indomethacin-induced ulcer, the ulcer index was determined. Each test compound was orally administered, as suspended in a gum arabic solution in concentration of 5%, to rats 1 hour before administration of hydrochloric acid-ethanol.

The nature of assay [2]: Expectorant action: tracheal secretion of fluorescein sodium in rats. In kind it is in vivo, Wistar rats (male). As to conditions: 50 mg/kg oral. The method, then:
Male Wistar rats (body weights, 280-320 g) were used in groups of 7 animals. Each test compound was orally administered in dose of 50 mg/kg body weight to rats. Immediately after administration, 0.3 ml/100 g (body weight of rat) of a 1% aqueous solution of fluorescein sodium was injected into the caudal vein. One hour after administration of the test compound, pentobarbital sodium 100 mg/kg (body weight of rat) was injected intraperitoneally so that deep anesthesia might cause the rat to die. Then, the trachea was exposed and an incision was made in the trachea. A sonde was inserted thereinto and ligation was made. To the sonde was connected a syringe containing 10 ml of a 5% solution of sodium hydrogen carbonate kept at 37° C. and 4 ml of the solution of sodium hydrogen carbonate was injected into the lung. After 5 minutes, the fluid in the lung was removed. After this procedure of injection and removal was repeated three times, the fluid removed from the lung was filtered and the filtrate was made up with water to make 20 ml. The intensity of fluroescence was determined at the excitation wave length of 491 nm and the fluorescence wave length of 510 nm using a spectrophotometer (HITACHI model 650-10, Hitachi, Ltd.). The amount of fluorescein sodium secreted into the trachea was estimated from the intensity of fluorescence. Each test compound was administered as suspended in a gum arabic solution in concentration of 5%.

The mark [3] stands for this setting: Rattus norvegicus, po, 1 h, Table 7, 25 mg/kg p.o.
Where [4] appears, read: Table 6, 25 mg/kg p.o., control 9.69 ± 1.68.
The mark [5] stands for this setting: Table 5, 25 mg/kg p.o., control 11.09 ± 1.49.
[6] abbreviates: Rattus norvegicus, po, 1 h, Table 7, 50 mg/kg p.o.
The mark [7] stands for this setting: Table 5, 50 mg/kg p.o., control 11.09 ± 1.49.
The mark [8] stands for this setting: Rattus norvegicus, po, 1 h, Table 8, 50 mg/kg p.o.
[9] abbreviates: Table 8, 50 mg/kg p.o., control 9.69 ± 1.68.
Setting [10] is: Rattus norvegicus, po, 1 h, Table 7, 12.5 mg/kg p.o.
Setting [11] is: Rattus norvegicus, po, 1 h, Table 12, 25 mg/kg p.o.
[12] abbreviates: Rattus norvegicus, po, 1 h, Table 12, 50 mg/kg p.o.
Setting [13] is: Rattus norvegicus, po, 1 h, Table 12, 100 mg/kg p.o.
Setting [14] is: Table 12, 25 mg/kg p.o., control 9.93 ± 0.91.
Setting [15] is: Table 12, 50 mg/kg p.o., control 9.93 ± 0.91.
The mark [16] stands for this setting: Table 12, 100 mg/kg p.o., control 9.93 ± 0.91.

`CC1(CC(=O)NC(=N)N)CCc2cc(Cl)ccc2O1` (stereo not shown) [Compound (8), N-(3,4-Dihydro-6-chloro-2-methyl-2H-benzopyran-2-yl)acetylguanidine] displayed an inhibition in vivo at 25 mg/kg in assay [1] (setting [3]) of 100%. For the same compound, the “Ulcer index (mean ± S.E.)” value in assay [1] (setting [4]) was found to be 0.00 ± 0.00 mm.

For the compound `COc1ccc(C(=O)N2CCN(CCC3(C)CCc4cc(Cl)ccc4O3)CC2)cc1` (stereo not shown) [Compound (26), 1-[2-(6-Chloro-3,4-dihydro-2-methyl-2H-benzopyran-2-yl)ethyl]-4-(4-methoxybenzoyl)piperazine], in assay [2] (Table 15, control 5.20 ± 0.78), the “Secretory amount (mean ± S.E.)” value is 9.61 ± 0.83 μg/100 g (body weight of rat)/.

On to `COc1ccc(CN2CCN(C(=O)C3(C)CCc4c(C)c(OC)c(C)c(C)c4O3)CC2)c(OC)c1OC` (stereo not shown) [Compound (30), 1-[(3,4-Dihydro-6-methoxy-2,5,7,8-tetramethyl-2H-benzopyran-2-yl)carbonyl]-4-(2,3,4-trimethoxybenzyl)piperazine], for which the “Secretory amount (mean ± S.E.)” value in assay [2] (Table 13, control 5.30 ± 0.40) is on record as 5.45 ± 0.54 μg/100 g (body weight of rat)/.

`COc1c(C)c(C)c2c(c1C)CCC(C)(CCC(=O)NC(=N)N)O2` (stereo not shown) [Compound (5)] had an inhibition in vivo at 25 mg/kg in assay [1] (setting [3]) of 100%. Further, in assay [1] (setting [5]), the “Ulcer index (mean ± S.E.)” value is recorded as 0.00 ± 0.00 mm.

In assay [1] (setting [6]), `COc1c(C)c(C)c2c(c1C)CCC(C)(CCNC(=N)N)O2` (stereo not shown) [Compound (10), N-[2-(3,4-Dihydro-6-methoxy-2,5,7,8-tetramethyl-2H-benzopyran-2-yl)ethyl]guanidine] came in with an inhibition in vivo at 50 mg/kg of 72.6%. In addition, the “Ulcer index (mean ± S.E.)” value in assay [1] (setting [7]) is reported as 3.04 ± 1.33 mm.

On to `CNC(=N)NCCC1(C)CCc2c(C)c(OC)c(C)c(C)c2O1` (stereo not shown) [Compound (11), N-[2-(3,4-Dihydro-6-methoxy-2,5,7,8-tetramethyl-2H-benzopyran-2-yl)ethyl]-N'-methylguanidine], for which the inhibition in vivo at 50 mg/kg in assay [1] (setting [6]) is 98.2%. Moreover, the “Ulcer index (mean ± S.E.)” value in assay [1] (setting [7]) came to 0.20 ± 0.14 mm.

In turn, `COc1c(C)c(C)c2c(c1C)CCC(C)(C(=O)NC(=N)N)O2` (stereo not shown) [Compound (4), N-(3,4-Dihydro-6-methoxy-2,5,7,8-tetramethyl-2H-benzopyran-2-yl)carbonylguanidine] showed an inhibition in vivo at 25 mg/kg in assay [1] (setting [3]) of 100%. Also, in assay [1] (setting [4]), the “Ulcer index (mean ± S.E.)” value is on record as 0.00 ± 0.00 mm.

`CNC(=S)NCCC1(C)CCc2c(C)c(OC)c(C)c(C)c2O1` (stereo not shown) [Compound (9), N-[2-(3,4-Dihydro-6-methoxy-2,5,7,8-tetramethyl-2H-benzopyran-2-yl)ethyl]-N'-methylthiourea] came in with an inhibition in vivo at 25 mg/kg in assay [1] (setting [3]) of 47.3%. In assay [1] (setting [6]), at 50 mg/kg the inhibition in vivo was 95.4%. Further, the “Ulcer index (mean ± S.E.)” value in assay [1] (setting [5]) stood at 5.84 ± 0.75 mm.

In the case of `COc1c(C)c(C)c2c(c1C)CCC(C)(CCN1CCN(CC=C(C)CCC=C(C)C)CC1)O2` (stereo not shown) [Compound (14), 3,4-Dihydro-6-methoxy-2-[2-[4-(3,7-dimethyl-2,6-octadienyl)piperazin-1-yl]ethyl]-2,5,7,8-tetramethyl-2H-benzopyran], the inhibition in vivo at 50 mg/kg in assay [1] (setting [8]) was 100%. Also, the “Ulcer index (mean ± S.E.)” value in assay [1] (setting [9]) turned out to be 0.00 ± 0.00 mm.

Consider `COc1ccc2c(c1)OC(C)(CC(=O)NC(=N)N)CC2` (stereo not shown) [Compound (7), N-(3,4-Dihydro-7-methoxy-2-methyl-2H-benzopyran-2-yl)acetylguanidine], for which, in assay [1] (setting [10]), the inhibition in vivo at 12.5 mg/kg is 71.9%. In assay [1] (setting [3]), this compound returned an inhibition in vivo at 25 mg/kg of 84.2%. For the same compound, the “Ulcer index (mean ± S.E.)” value stood at 3.12 ± 0.66 mm in assay [1] (Table 5, 12.5 mg/kg p.o., control 11.09 ± 1.49) and 1.53 ± 0.66 mm in assay [1] (setting [4]).

In assay [1] (setting [3]), `CC(C)=CCOc1c(C)c(C)c2c(c1C)CCC(C)(CC(=O)NC(=N)N)O2` (stereo not shown) [Compound (3), N-(3,4-Dihydro-6-prenyloxy-2,5,7,8-tetramethyl-2H-benzopyran-2-yl)acetylguanidine] came in with an inhibition in vivo at 25 mg/kg of 98.7%. In addition, in assay [1] (setting [5]), the “Ulcer index (mean ± S.E.)” value came out at 0.14 ± 0.14 mm.

In the case of `COc1ccc2c(c1)CCC(C)(CC(=O)NC(=N)N)O2` (stereo not shown) [Compound (6), N-(3,4-Dihydro-6-methoxy-2-methyl-2H-benzopyran-2-yl)acetylguanidine], the inhibition in vivo at 25 mg/kg in assay [1] (setting [3]) turned out to be 79.1%. Besides, the “Ulcer index (mean ± S.E.)” value in assay [1] (setting [4]) is listed as 2.03 ± 1.04 mm.

Consider `CCOc1c(C)c(C)c2c(c1C)CCC(C)(CC(=O)NC(=N)N)O2` (stereo not shown) [Compound (2), N-(3,4-Dihydro-6-ethoxy-2,5,7,8-tetramethyl-2H-benzopyran-2-yl)acetylguanidine], for which testing at 25 mg/kg in assay [1] (setting [3]) gave an inhibition in vivo of 89%. In addition, the “Ulcer index (mean ± S.E.)” value in assay [1] (setting [5]) came to 0.50 ± 0.34 mm.

As to `CC(C)=CCOc1ccc(/C=C/C(=O)c2ccc(OCC=C(C)C)cc2OCC(=O)O)cc1` [Sofalcone, 2'-carboxymethoxy-4,4'-bis(3-methyl-2-butenyloxy)calcon, reference compound], the inhibition in vivo at 25 mg/kg in assay [1] (setting [11]) and in assay [1] (setting [3]) was 25.8% throughout. The inhibition in vivo at 50 mg/kg in assay [1] (setting [6]) and in assay [1] (setting [12]) was 38.3% in each case. In assay [1] (setting [13]), this compound displayed an inhibition in vivo at 100 mg/kg of 39.8%. At 300 mg/kg the inhibition in vivo in assay [1] (Rattus norvegicus, po, 1 h, Table 12, 300 mg/kg p.o.) was 100%. Besides, the “Ulcer index (mean ± S.E.)” value in assay [1] (setting [14]) was determined as 7.37 ± 0.54 mm; in assay [1] (setting [15]), 6.13 ± 0.91 mm; in assay [1] (setting [16]), 5.98 ± 1.04 mm; in assay [1] (Table 12, 300 mg/kg p.o., control 9.93 ± 0.91), 0.00 ± 0.00 mm.

Take `COc1cc(CN2CCN(CCC3(C)CCc4c(C)c(OC)c(C)c(C)c4O3)CC2)cc(OC)c1OC` (stereo not shown) [Compound (18), 3,4-Dihydro-6-methoxy-2-[2-[4-(3,4,5-trimethoxybenzyl)piperazin-1-yl]ethyl]-2,5,7,8-tetramethyl-2H-benzopyran]: in assay [1] (Rattus norvegicus, po, 1 h, Table 10, 50 mg/kg p.o.), the inhibition in vivo at 50 mg/kg was 83.2%. For the same compound, the “Ulcer index (mean ± S.E.)” value in assay [1] (Table 10, 50 mg/kg p.o., control 5.98 ± 1.96) is given as 0.98 ± 0.98 mm.

In turn, `COc1c(C)c(C)c2c(c1C)CCC(C)(CCN1CCN(CC=C(C)C)CC1)O2` (stereo not shown) [Compound (13), 3,4-Dihydro-6-methoxy-2-[2-[4-(3-methyl-2-butenyl)piperazin-1-yl]ethyl]-2,5,7,8-tetramethyl-2H-benzopyran] gave an inhibition in vivo at 50 mg/kg in assay [1] (setting [8]) of 100%. In addition, in assay [1] (setting [9]), the “Ulcer index (mean ± S.E.)” value stood at 0.00 ± 0.00 mm.

`COc1c(C)c(C)c2c(c1C)CCC(C)(CCN1CCNCC1)O2` (stereo not shown) [Compound (12), 3,4-Dihydro-6-methoxy-2-[2-(piperazin-1-yl)ethyl]-2,5,7,8-tetramethyl-2H-benzopyran]: 25 mg/kg produced 98.7% inhibition in vivo in assay [1] (Rattus norvegicus, po, 1 h, Table 8, 25 mg/kg p.o.). For the same compound, the inhibition in vivo at 50 mg/kg in assay [1] (setting [8]) was determined as 100%. Besides, the “Ulcer index (mean ± S.E.)” value in assay [1] (Table 8, 25 mg/kg p.o., control 9.69 ± 1.68) is listed as 0.13 ± 0.13 mm; in assay [1] (setting [9]) it was 0.00 ± 0.00 mm.

Take `COc1c(C)c(C)c2c(c1C)CCC(C)(CCN1CCN(CC=C(C)CCC=C(C)CCC=C(C)C)CC1)O2` (stereo not shown) [Compound (15), 3,4-Dihydro-6-methoxy-2-[2-[4-(3,7,11-trimethyl-2,6,10-dodecatrienyl)piperazin-1-yl]ethyl]-2,5,7,8-tetramethyl-2H-benzopyran]: in assay [1] (setting [8]), the inhibition in vivo at 50 mg/kg is 100%. For the same compound, in assay [1] (setting [9]), the “Ulcer index (mean ± S.E.)” value worked out at 0.00 ± 0.00 mm.

Regarding `CC(=O)CCC=C(C)CC/C=C(\C)CC/C=C(\C)CCC=C(C)C` [Teprenone, reference compound], the inhibition in vivo at 25 mg/kg in assay [1] (setting [11]) and in assay [1] (setting [3]) was 78.4% throughout. In addition, the inhibition in vivo at 12.5 mg/kg in assay [1] (setting [10]) was 33.8%. The same compound gave an inhibition in vivo at 50 mg/kg in assay [1] (setting [12]) of 91.4%. Testing at 100 mg/kg in assay [1] (setting [13]) gave an inhibition in vivo of 96.3%. Besides, the figures for the “Ulcer index (mean ± S.E.)” value in assay [1] (setting [14]), in assay [1] (setting [15]) and in assay [1] (setting [16]) were 2.15 ± 1.26 mm, 0.85 ± 0.61 mm and 0.37 ± 0.37 mm, respectively.

By inhibition in vivo is commonly meant the drop in the measured response relative to a control, in per cent. A high value points to a response far below the control.
